Source: patent US20260347310A1, “PHENALKYLAMINES AND METHODS OF MAKING AND USING THE SAME” (GILGAMESH PHARMACEUTICALS, INC., priority 2022, published 2026)
Entries after “also recorded” stand apart in the source; their conditions may differ.

Key:
[1] = Metabolic stability in dog liver microsomes (DLM); type: in vitro ADME, Beagle dogs; details: for stability in DLM (in words): 1 μM, 0.50 mg protein/mL, 1 mM NADPH, 37 °C, 60 min; for half-life at 1 µM / microsomal CLint at 1 µM: dog liver microsomes 0.50 mg/mL, NADPH 1 mM, test compound 1 μM, 37° C., pH 7.4, 60 min
Experimental: (§1) Test Compounds. Compounds were prepared as described above.
(§2) DLM Stability. Pooled DLM from adult male Beagle dogs (Xenotech D1000) were used. Microsomal incubations were carried out in multi-well plates. Liver microsomal incubation medium consisted of PBS (100 mM, pH 7.4), MgCl2 (1 mM), and NADPH (1 mM), with 0.50 mg of liver microsomal protein per mL. Control incubations were performed by replacing the NADPH-cofactor system with PBS. Test compounds (1 μM, final solvent concentration 1.0%) were incubated with microsomes at 37° C. with constant shaking. Six time points over 60 minutes were analyzed, with 60 μL aliquots of the reaction mixture being drawn at each time point. The reaction aliquots were stopped by adding 180 μL of cold (4° C.) acetonitrile containing 200 ng/mL tolbutamide and 200 ng/mL labetalol as internal standards (IS), followed by shaking for 10 minutes, and then protein sedimentation by centrifugation at 4,000 rpm for 20 minutes at 4° C. Supernatant samples (80 μL) were diluted with water (240 μL) and analyzed for parent compound remaining using a fit-for-purpose liquid chromatography-tandem mass spectrometry (LC-MS/MS) method.
(§3) Data Analysis. The elimination constant (kel), half-life (t1/2), and intrinsic clearance (CLint) were determined in a plot of […] versus time, using linear regression analysis.

[2] = target: T1, 5-HT2A receptor (Homo sapiens, UniProt P28223); assay: PathHunter beta-arrestin recruitment functional agonist assay at 5-HT2A; type: cell-based; design: expressed in transfected cells; host or cells: PathHunter cells (Eurofins DiscoverX); details: for agonist activity at 5-HT2A in arrestin assay (in words): beta-arrestin recruitment; for Emax: read-out: 5-HT2A Arrestin % Act @ Max Dose
Experimental: Disclosed compounds were tested for agonist activity at the 5-HT2A receptor using a beta-arrestin (arrestin) recruitment functional assay, with the results summarized in Table 10.
Arrestin Functional Assay at 5-HT2A. Recruitment of beta-arrestin was determined using a PathHunter assay at Eurofins DiscoverX (Fremont, CA) according to their standard protocols. PathHunter GPCR beta-arrestin assays take advantage of DiscoverX's proprietary Enzyme Fragment Complementation technology. The GPCR is fused in frame with a small enzyme donor fragment ProLink™ (PK) and co-expressed in cells stably expressing a fusion protein of beta-arrestin and the larger, N-terminal deletion mutant of beta-galactosidase. Activation of the GPCR (5-HT2A receptor in this case) stimulates binding of beta-arrestin to the PK-tagged GPCR and forces complementation of the two enzyme fragments, resulting in the formation of an active beta-galactosidase enzyme. This interaction leads to an increase in enzyme activity that can be measured using chemiluminescent PathHunter Detection Reagents. Briefly, PathHunter cells expressing 5-HT2A receptors were seeded in a volume of 20 μL into 384-well plates and incubated at 37° C. for the appropriate time prior to testing. For agonist activity determination, cells were incubated with 5 μL of 5× sample in assay buffer and incubated at 37° C. for 90-180 min with a vehicle concentration of 1%. Plates were then imaged on a microplate reader and the agonist activity was calculated using the following formula: % Activity=100%×(mean RLU of test sample−mean RLU of vehicle control)/(mean MAX control ligand−mean RLU of vehicle control), where RLU=relative light units.

[3] = target: T1, 5-HT2A receptor; assay: Radioligand binding at 5-HT2A ([3H]ketanserin); design: expressed in transfected cells
Experimental: The binding affinities of disclosed compounds at the ketanserin binding site of the 5-HT2A receptor, the LSD binding site of the 5-HT2B receptor, and the mesulergine binding site of the 5-HT2C receptor were determined in radioligand binding experiments.
Method. The affinity of the test compounds for 5-HT2A, 5-HT2B, and 5-HT2C receptors was determined in radioligand binding experiments with [^3H]ketanserin, [^3H]LSD, and [^3H]mesulergine, respectively, by WuXi AppTec (Hong Kong) Limited, using methods adapted from the literature and under conditions described in Table 7.

[4] = Metabolic stability in human liver microsomes (HLM); type: in vitro ADME; details: for stability in HLM (in words): 1 μM, 0.50 mg protein/mL, 1 mM NADPH, 37 °C, 60 min; for half-life at 1 µM / microsomal CLint at 1 µM: human liver microsomes 0.50 mg/mL, NADPH 1 mM, test compound 1 μM, 37° C., pH 7.4, 60 min
Experimental: as §1
as §2, with “HLM” for “DLM”, “and female donors (Corning 452117)” for “Beagle dogs (Xenotech D1000)”
as §3

[5] = target: T1, 5-HT2A receptor; assay: FLIPR Ca2+ flux functional agonist assay at 5-HT2A; type: cell-based; design: expressed in transfected cells; host or cells: HEK293; details: for agonist activity at 5-HT2A (in words): potency or efficacy; for Emax: HEK293, read-out: 5-HT2A % Act @ Max Dose
Experimental: (§4) Disclosed compounds were tested for agonist activity at several serotonin receptor subtypes (5-HT2A, […], and 5-HT2C) using Ca^2+ flux functional assays, with the results summarized in Table 9.
as §1
(§5) Functional Assays at 5-HT2A and 5-HT2B. Agonist activity at 5-HT2A and 5-HT2B receptors was determined using a FLIPR Ca^2+ flux assay at WuXi AppTec (Hong Kong) Limited according to their standard protocols. Briefly, stably transfected cells expressing the receptor of interest (HEK293 for both 5-HT2A and 5-HT2B) were grown and plated in a 384-well plate and incubated at 37° C. and 5% CO2 overnight. A solution of 250 mM probenecid in 1 mL FLIPR assay buffer was prepared fresh. This was combined with a fluorescent dye (Fluo-4 Direct™) to make a final assay concentration of 2.5 mM. Compounds were diluted 1:3.16 for 10 points and 750 nL was added to a 384 well compound plate using ECHO along with 30 μL assay buffer. The fluorescent dye was then added to the assay plate along with assay buffer to a final volume of 40 μL. The cell plate was incubated for 50 min at 37° C. and 5% CO2 and placed into the FLIPR Tetra along with the compound plate. 10 μL of references and compounds were then transferred from the compound plate into the cell plate and the fluorescent signal was read.

[6] = target: T2, 5-HT2B receptor (Homo sapiens, UniProt P41595); assay: FLIPR Ca2+ flux functional agonist assay at 5-HT2B; type: cell-based; details: for Emax: agonist activity, FLIPR Ca2+ flux, HEK293, at max dose, read-out: 5-HT2B % Act @ Max Dose
T2 construct: expressed in transfected cells; host or cells: HEK293
Experimental: as §4, §1, §5

T1 sequence (P28223 whole entry): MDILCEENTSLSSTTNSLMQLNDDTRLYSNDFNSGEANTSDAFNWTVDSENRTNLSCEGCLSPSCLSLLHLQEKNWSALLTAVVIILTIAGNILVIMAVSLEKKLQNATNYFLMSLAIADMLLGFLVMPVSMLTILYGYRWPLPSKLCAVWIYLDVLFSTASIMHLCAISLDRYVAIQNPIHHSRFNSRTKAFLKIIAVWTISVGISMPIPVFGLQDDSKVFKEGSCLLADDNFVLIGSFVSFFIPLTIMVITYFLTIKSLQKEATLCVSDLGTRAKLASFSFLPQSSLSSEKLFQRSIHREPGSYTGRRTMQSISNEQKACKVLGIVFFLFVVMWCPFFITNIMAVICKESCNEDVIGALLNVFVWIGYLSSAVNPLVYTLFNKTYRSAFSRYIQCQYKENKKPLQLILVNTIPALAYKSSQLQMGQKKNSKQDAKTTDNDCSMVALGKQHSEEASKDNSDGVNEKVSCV
T2 sequence (P41595 whole entry): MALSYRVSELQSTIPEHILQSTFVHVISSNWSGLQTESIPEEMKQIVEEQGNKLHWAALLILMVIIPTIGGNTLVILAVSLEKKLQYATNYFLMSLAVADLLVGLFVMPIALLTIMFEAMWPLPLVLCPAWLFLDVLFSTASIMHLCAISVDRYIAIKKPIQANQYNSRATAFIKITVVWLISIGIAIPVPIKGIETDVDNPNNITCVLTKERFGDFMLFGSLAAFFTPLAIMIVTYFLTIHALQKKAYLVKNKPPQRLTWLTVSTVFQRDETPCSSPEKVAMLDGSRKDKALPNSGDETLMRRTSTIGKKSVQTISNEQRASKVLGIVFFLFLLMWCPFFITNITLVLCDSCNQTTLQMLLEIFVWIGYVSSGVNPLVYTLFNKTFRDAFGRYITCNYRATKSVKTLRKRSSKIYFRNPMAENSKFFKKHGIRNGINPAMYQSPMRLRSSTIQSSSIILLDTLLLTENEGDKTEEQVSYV

In the case of `CCC(N)Cc1cc(OC)c(CCCCCC(F)(F)F)cc1OC` (racemic) [Compound 2a, 1-(2,5-dimethoxy-4-(6,6,6-trifluorohexyl)phenyl)butan-2-amine], the “stability in DLM (in words)” value [1] is reported as “significantly higher stability compared to 1R and 1S”, the half-life at 1 µM [1] is reported as 71.3 min and the microsomal CLint at 1 µM [1] is reported as 19.4 µL/min/mg. For the same molecule, the EC50 [2] was 33.2 nM, the “agonist activity at 5-HT2A in arrestin assay (in words)” value [2] was “higher efficacy in this assay than in the 5-HT2A FLIPR assay” and the Emax [2] was 56.8%. For the same molecule, the Ki [3] was 5.4 nM, the “binding at 5-HT2A receptors (in words)” value ([3]; [3H]ketanserin) was “potent ligands for 5-HT2A” and the “stability in HLM (in words)” value [4] was “significantly higher stability compared to 1R and 1S”. The half-life at 1 µM [4] was > 145 min, the microsomal CLint at 1 µM [4] was < 9.6 µL/min/mg and the EC50 [5] was 156 nM. The “agonist activity at 5-HT2A (in words)” value ([5]; Ca2+ flux) was “substantially less potent than 1R and 1S in the 5-HT2A FLIPR assay; also recorded: substantially lower efficacy than 1R or 1S”, the Emax [5] was 36.2% and the EC50 [6] was > 10000 nM. It also gave an Emax [6] of 4.85%.
For `CCCCCCc1cc(OC)c(C[C@H](N)CC)cc1OC` [Compound 1R, (R)-1-(4-hexyl-2,5-dimethoxyphenyl)butan-2-amine], the “stability in DLM (in words)” value [1] was “substantially less stable than 1S”, the “CLint and half-life in DLM (in words)” value ([1]; 1R versus 1S) was “higher CLint and shorter half-life” and the half-life at 1 µM [1] was 11.3 min. For the same molecule, the microsomal CLint at 1 µM [1] was 122 µL/min/mg, the EC50 [2] was 6.23 nM and the “agonist activity at 5-HT2A in arrestin assay (in words)” value [2] was “substantially more efficacious compared to 1S”. The Emax [2] was 82.5%, the Ki [3] was 3.44 nM and the “selectivity for 5-HT2A (in words)” value ([3]; 1R, over 5-HT2B and 5-HT2C, compared to 1S) was “greater selectivity for 5-HT2A”. The “stability in HLM (in words)” value [4] was “substantially more stable than 1S”, the “CLint and half-life in HLM (in words)” value ([4]; 1R versus 1S) was “lower CLint and longer half-life” and the half-life at 1 µM [4] was 37.5 min. For the same molecule, the microsomal CLint at 1 µM [4] was 37 µL/min/mg, the EC50 [5] was 23.1 nM and the “fold more potent at 5-HT2A” value ([5]; 1R compared to 1S, Ca2+ flux) was ~ 2 fold. The “agonist activity at 5-HT2A (in words)” value ([5]; Ca2+ flux) was “Efficacy at 5-HT2A was also greater for 1R compared to 1S”, the Emax [5] was 76.8% and the EC50 [6] was > 10000 nM. For the same molecule, the Emax [6] was 14.8%.
With `CCCCCCc1cc(OC)c(C[C@@H](N)CC)cc1OC` [Compound 1S, (S)-1-(4-hexyl-2,5-dimethoxyphenyl)butan-2-amine] the half-life at 1 µM [1] was 22.9 min, the microsomal CLint at 1 µM [1] was 60.4 µL/min/mg and the EC50 [2] was 7.85 nM. For the same molecule, the Emax [2] was 58.5%, the Ki [3] was 3.34 nM and the half-life at 1 µM [4] was 19.7 min. The microsomal CLint at 1 µM [4] was 70.2 µL/min/mg, the EC50 [5] was 43.8 nM and the Emax [5] was 59.7%. For the same molecule, the EC50 [6] was > 10000 nM and the Emax [6] was 16.1%.
